Measurements reported in patent publication US12350253B2, “Use of cannabinoids in the treatment of dyskinesia associated with parkinson's disease” (Jazz Pharmaceuticals Research UK Limited, priority 2019, dated 2025).
“Also recorded” adds a separate entry of the source.

Tests used:
[1] = system: 6-hydroxydopamine rat model of Parkinson's disease; conditions: oral coadministration of L-DOPA and rimonabant; cited from earlier work
[2] = system: nigral neurons; conditions: various experimental models of PD; cited from earlier work
[3] = system: Pitx3−/− mice; assay: Rotarod test (motor coordination); assay type: in vivo; conditions: THCV co-administered with L-DOPA; after 12 days of daily treatment; vs L-DOPA
Procedure: (§1) In a first experiment, animals were treated with an i.p. injection of 10 mg/kg of benserazide hydrochloride followed 20 minutes later by a second i.p. injection of 10 mg/kg of L-DOPA methyl ester. Separate groups of animals received equivalent injections with vehicle (saline) used as controls. Both L-DOPA- and vehicle-treated mice received, 10 minutes after the second injection, a third i.p. injection of THCV (2 mg/kg) or vehicle (Tween 80-saline). The same treatment schedule was repeated daily during approximately two weeks.
Motor coordination was tested using a rotarod. The rotarod was set at a constant speed (10 revolutions per minute) and latency to fall from the rod was assessed. Cut off time was 180 seconds. Before testing, mice were previously habituated in one training session, as described previously.

[4] = system: L-DOPA-induced dyskinesia in Pitx3−/− mice; assay: L-DOPA-induced dyskinesia (AIMs), THCV co-administered daily with L-DOPA; assay type: in vivo; conditions: for duration of AIMs (three/four-paw dyskinetic movements): vs L-DOPA alone
Procedure: Pitx3^−/− aphakia mice and their wildtype littermates, were genotyped using PCR amplification analysis of tail-tip DNA extracts. Mice were housed under a 12 h dark/light cycle with free access to food and water. They were used for experimental purposes at the age of 4-6 month-old (24-30 g of weight).
as §1
(§2) AIMs were assessed 30 and 60 min after L-DOPA administration. Dyskinesia was scored off-line by a blind rater based on video footage. Ratings were assessed for four minutes at each time point.
(§3) Total dyskinesia was rated by adding the duration in seconds of all three-paw and four-paw dyskinetic bouts. Additionally, on odd days, individual mice were placed in actimeters and motor activity was assessed following drug administration.
On Day 14, we evaluated AIMs every 20 min for 160 min after administering L-DOPA to determine the extinction of this response.

[5] = system: phospho(Ser10)-acetyl (Lys14)-Hystone 3 (pAcH3); assay: pAcH3 immunostaining in striatum; assay type: in vivo, mice; conditions: chronic THCV with L-DOPA vs chronic L-DOPA
Procedure: (§4) Following behavioral analysis, animals were euthanized 1 hour after the last injection of L-DOPA. The brains were post-fixed for 24 h and were then transferred to a solution of 0.1 M phosphate buffer containing 0.02% sodium azide for storage at 4° C. To obtain regular blocks, brains were further immersed in 3% agarose and cut in coronal sections (30 μm thick) using a vibratome.
(§5) Immunostaining was carried out in free-floating sections using a standard avidin-biotin immunocytochemical protocol with the following rabbit antisera: (i) FosB (1:7500), and (ii) anti phospho(Ser10)-acetyl (Lys14)-Hystone 3 (pAcH3; 1:500).
(§6) After incubation with primary antibody (overnight), the sections were washed and incubated with biotinylated secondary anti-rabbit antibody (1:500) for 1 h at room temperature. After washing, the sections were incubated with streptavidin for 1 h and antibody staining was developed using DAB.
(§7) Regarding the quantification of FosB and pAcH3 immunoreactivity, it was carried out using an image analysis system.
For all sides, immunostaining intensity and number of immunolabeled nuclei were determined using five serial rostrocaudal sections per animal and three counting frames (dorsal, dorsolateral and lateral) per section (0.091 mm2 each frame). Images were digitized with Leica microscope under 40× lens. Before counting, images were thresholded at a standardized grey-scale level. […]

[6] = system: established L-DOPA-induced dyskinesia in Pitx3−/− mice; assay: Established L-DOPA-induced dyskinesia (AIMs), THCV started after about two weeks of L-DOPA; assay type: in vivo; conditions: 30 min after L-DOPA; for duration of L-DOPA-induced three/four-paw dyskinesia, established dyskinesia: THCV 2 mg/kg from day 14 after 13 days of L-DOPA, vs L-DOPA alone
Procedure: In a second experiment, benserazide and L-DOPA (and their corresponding vehicles) were administered to mice following the same schedule than in the previous experiment, but THCV, again at the dose of 2 mg/kg, was given for the first time after approximately two weeks of daily benserazide/L-DOPA treatment, with the administration of the three compounds (and vehicles) extending for at least 3 days.
as §2, §3

[7] = system: FosB; assay: FosB immunostaining in striatum; assay type: in vivo, mice; conditions: chronic THCV with L-DOPA vs chronic L-DOPA
Procedure: as §4, §5, §6
For immunostaining quantification in the completely denervated area, we used the Neurolucida software. […]
as §7
For all sides, immunostaining intensity and number of immunolabeled nuclei were determined using five serial rostrocaudal sections per animal and three counting frames (dorsal, dorsolateral and lateral) per section (0.091 mm2 each frame). […]

[8] = system: Pitx3−/− mice; assay: Locomotor activity (multicage activity meter); assay type: in vivo
Procedure: as §1
Horizontal and vertical activities were recorded, using a multicage activity meter system consisting of a set of 8 individual cages measuring 20×20×28 cm. Animals were introduced in the actimeter 60 minutes after L-DOPA injection and were assessed for 30 minutes. Horizontal movement was detected by 2 arrays of 16 infrared beams, whereas a third array positioned 4 cm above the floor detected vertical movement.
The software is capable of differentiating between repetitive interruptions of the same photobeam and interruptions of adjacent photobeams. The latter measure was used as an index of ambulatory activity.

[9] = system: parkinsonian rats; conditions: acute treatment; cited from earlier work
[10] = THCV co-administered with L-DOPA, 60 min after L-DOPA, vs L-DOPA

Cc1c(C(=O)NN2CCCCC2)nn(-c2ccc(Cl)cc2Cl)c1-c1ccc(Cl)cc1 [rimonabant]
abnormal involuntary movements and dystonia [1]: decreased abnormal involuntary movements and dystonia

CCCCCc1cc(O)c2c(c1)OC(C)(C)[C@@H]1CCC(C)=C[C@@H]21 [THC, tetrahydrocannabinol]
protection of nigral neurons from death caused by different insults [2]: able to protect nigral neurons from death

C=C(C)[C@@H]1CCC(C)=C[C@H]1c1c(O)cc(CCCCC)cc1O [CBD, cannabidiol]
protection of nigral neurons from death caused by different insults [2]: able to protect nigral neurons from death

CCCc1cc(O)c2c(c1)OC(C)(C)[C@@H]1CCC(C)=C[C@@H]21 [THCV, tetrahydrocannabivarin]
rotarod performance (latency to fall) [3]: improved motor coordination in rotarod; also recorded: improved the deteriorated rotarod performance | duration of AIMs (three/four-paw dyskinetic movements) ([4]; 30 min post-L-DOPA, THCV 2 mg/kg i.p. daily with L-DOPA 10 mg/kg i.p., except days 1 and 3): attenuates dyskinesia; also recorded: reduced the duration of AIMs | duration of AIMs (three/four-paw dyskinetic movements) ([4]; 60 min post-L-DOPA, THCV 2 mg/kg i.p. daily with L-DOPA): to a lesser extent; also recorded: significant differences only at days 7 and 13 of treatment | dyskinetic movements with THCV alone ([4]; THCV 2 mg/kg i.p. alone, no L-DOPA): showed no dyskinetic movements | dyskinesias score, acute co-treatment ([4]; day 1 of treatment, 30 min and 60 min, THCV 2 mg/kg with L-DOPA): decreases, but not significantly | time post-treatment up to which difference from L-DOPA alone remained (kinetic profile of AIMs) ([4]; last day of treatment, AIMs every 20 min over 160 min): up to 80 minutes | immunostaining intensity of pAcH3-positive nuclei in striatum [5]: decreases the intensity of nuclei; also recorded: beneficial effects | number of pAcH3-positive nuclei in striatum [5]: only evident in the intensity of immunostained-nuclei | persistence of the reduction of established dyskinesia ([6]; THCV 2 mg/kg): 3 days | duration of L-DOPA-induced three/four-paw dyskinesia, established dyskinesia [6]: significantly reduced dyskinesia | duration of L-DOPA-induced three/four-paw dyskinesia, established dyskinesia ([6]; listed as Δ9-THCV): active in reducing the duration of L-DOPA-induced three/four-paw dyskinesia | immunostaining intensity of FosB-positive cells in striatum [7]: attenuates the immunostaining-intensity of FosB positive nuclei; also recorded: reduction affected both the number and the immunostaining intensity | number of FosB-positive cells in striatum [7]: attenuates the increased expression of FosB-positive cells; also recorded: reduction affected both the number and the immunostaining intensity | horizontal activity ([8]; THCV alone vs vehicle): no effect on the horizontal activity | vertical activity ([8]; THCV alone vs vehicle): did elevate vertical activity by itself | horizontal activity [8, 10]: attenuating the elevated horizontal and vertical activities | vertical activity [8, 10]: attenuating the elevated horizontal and vertical activities | motor inhibition [9]: efficacious in reducing motor inhibition | potency in reducing motor inhibition relative to rimonabant [9]: equivalent to rimonabant

CCCCC/C=C\C/C=C\C/C=C\C/C=C\CCCC(=O)Nc1ccc(O)cc1 [AM404]
protection of nigral neurons from death caused by different insults [2]: able to protect nigral neurons from death

CCCCCCC(C)(C)c1ccc([C@@H]2C[C@H](O)CC[C@H]2CCCO)c(O)c1 [CP55,940]
protection of nigral neurons from death caused by different insults [2]: able to protect nigral neurons from death
